# Experimental data: ChEMBL document CHEMBL1139749, “Design, synthesis and in vivo activity of 9-(S)-dihydroerythromycin derivatives as potent anti-inflammatory agents” (2006)
# System: Mus musculus
# Assay: Antiinflammatory activity in topically dosed CD1 mouse assessed as inhibition of PMA-induced ear edema at 0.5 mg/ear
# Type: functional
row,SMILES,Inhibition [%]
1,CC[C@H]1OC(=O)[C@H](C)[C@@H](O[C@H]2C[C@@](C)(OC)[C@@H](O)[C@H](C)O2)[C@H](C)[C@@H](O[C@H]2O[C@@H](C)C[C@@H](N(C)C(C)=O)[C@@H]2O)[C@](C)(O)C[C@@H](C)[C@H](O)[C@H](C)[C@@H](O)[C@]1(C)O,79
2,CC[C@H]1OC(=O)[C@H](C)[C@@H](O[C@H]2C[C@@](C)(OC)[C@@H](O)[C@H](C)O2)[C@H](C)[C@@H](O[C@H]2O[C@@H](C)C[C@@H](N(C)C(=O)CNCCN(C)C)[C@@H]2O)[C@](C)(O)C[C@@H](C)[C@H](O)[C@H](C)[C@@H](O)[C@]1(C)O,31
3,CC[C@H]1OC(=O)[C@H](C)[C@@H](O[C@H]2C[C@@](C)(OC)[C@@H](O)[C@H](C)O2)[C@H](C)[C@@H](O[C@H]2O[C@@H](C)C[C@@H](NCCNCCNCc3nccs3)[C@@H]2O)[C@](C)(O)C[C@@H](C)[C@H](O)[C@H](C)[C@@H](O)[C@]1(C)O,43
4,CC[C@H]1OC(=O)[C@H](C)[C@@H](O)[C@H](C)[C@@H](O[C@H]2O[C@@H](C)C[C@@H](NCCNCCNCc3nccs3)[C@@H]2O)[C@](C)(O)C[C@@H](C)[C@H](O)[C@H](C)[C@@H](O)[C@]1(C)O,45
5,CC[C@H]1OC(=O)[C@H](C)[C@@H](O[C@H]2C[C@@](C)(OC)[C@@H](O)[C@H](C)O2)[C@H](C)[C@@H](O[C@@H]2O[C@H](C)C[C@H](N(C)C)[C@H]2O)[C@](C)(O)C[C@@H](C)C(=O)[C@H](C)[C@@H](O)[C@]1(C)O [ERYTHROMYCIN],42
6,CC[C@H]1OC(=O)[C@H](C)[C@@H](O)[C@H](C)[C@@H](O[C@H]2O[C@@H](C)C[C@@H](N(C)C(C)=O)[C@@H]2O)[C@](C)(O)C[C@@H](C)[C@H](O)[C@H](C)[C@@H](O)[C@]1(C)O,66
7,CC[C@H]1OC(=O)[C@H](C)[C@@H](O[C@H]2C[C@@](C)(OC)[C@@H](O)[C@H](C)O2)[C@H](C)[C@@H](O[C@H]2O[C@@H](C)C[C@@H](N(C)C(=O)CNCc3ccccc3)[C@@H]2O)[C@](C)(O)C[C@@H](C)[C@H](O)[C@H](C)[C@@H](O)[C@]1(C)O,71
8,CC[C@H]1OC(=O)[C@H](C)[C@@H](O[C@H]2C[C@@](C)(OC)[C@@H](O)[C@H](C)O2)[C@H](C)[C@@H](O[C@H]2O[C@@H](C)C[C@@H](N(C)CCCNCc3nccs3)[C@@H]2O)[C@](C)(O)C[C@@H](C)[C@H](O)[C@H](C)[C@@H](O)[C@]1(C)O,74
9,CC[C@H]1OC(=O)[C@H](C)[C@@H](O[C@H]2C[C@@](C)(OC)[C@@H](O)[C@H](C)O2)[C@H](C)[C@@H](O[C@H]2O[C@@H](C)C[C@@H](N(C)Cc3ccccc3)[C@@H]2O)[C@](C)(O)C[C@@H](C)[C@H](O)[C@H](C)[C@@H](O)[C@]1(C)O,58
10,CC[C@H]1OC(=O)[C@H](C)[C@@H](O[C@H]2C[C@@](C)(OC)[C@@H](O)[C@H](C)O2)[C@H](C)[C@@H](O[C@H]2O[C@@H](C)C[C@@H](N(C)C(=O)CNCCNCc3ccccc3)[C@@H]2O)[C@](C)(O)C[C@@H](C)[C@H](O)[C@H](C)[C@@H](O)[C@]1(C)O,87
11,CC[C@H]1OC(=O)[C@H](C)[C@@H](O)[C@H](C)[C@@H](O[C@H]2O[C@@H](C)C[C@@H](N(C)CCCNCc3nccs3)[C@@H]2O)[C@](C)(O)C[C@@H](C)[C@H](O)[C@H](C)[C@@H](O)[C@]1(C)O,53
12,CC[C@H]1OC(=O)[C@H](C)[C@@H](O[C@H]2C[C@@](C)(OC)[C@@H](O)[C@H](C)O2)[C@H](C)[C@@H](O[C@H]2O[C@@H](C)C[C@@H](N(C)C(=O)CNCCC(C)C)[C@@H]2O)[C@](C)(O)C[C@@H](C)[C@H](O)[C@H](C)[C@@H](O)[C@]1(C)O,18
